The text below walks through data of US9919998B2, “Antibacterial agents: Nα-aroyl-N-aryl-phenylalaninamides” (priority 2014, dated 2018).

Type in all cases: cell-based
The test system of series [1] is Mycobacterium smegmatis ATCC 19420. As to the kind of experiment: Broth microdilution MIC, M. smegmatis. The settings on record: Mycolicibacterium smegmatis, ATCC19420, M. smegmatis ATCC 19420; read-out: MIC Mycobacterium smegmatis ATCC 19420. The text has this:
MICs in Mycobacterium smegmatis ATCC 19420 and Mycobacterium smegmatis ATCC 19420 derivatives were quantified using broth microdilution assays as described [Clinical and Laboratory Standards Institute (CLSI/NCCLS) (2009) Methods for Dilution Antimicrobial Susceptibility Tests for Bacteria That Grow Aerobically; Approved Standard, Eighth Edition. CLIS Document M07-A8 (CLIS, Wayne Pa.)].

Series [2] concerns Vero E6 ATCC CRL1586 cells. As to the kind of experiment: Mammalian-cell cytotoxicity, minimal cytotoxic concentration (CellTiter96). Here is the method: Minimal cytotoxic concentrations (MCCs) against mammalian cells in culture were determined using Vero E6 ATCC CRL1586 cells and the CellTiter96 assay kit (Promega, Inc.). […]
The subject of series [3] is Mycobacterium tuberculosis H37Rv. As to the kind of experiment: Microplate Alamar Blue assay (MABA) MIC, M. tuberculosis. To be noted: read-out: MIC Mycobacterium tuberculosis H37Rv. The text has this:
(§1) Minimal inhibitory concentrations (MICs) in Mycobacterium tuberculosis H37Rv and Mycobacterium avium ATCC 25291 were quantified using microplate Alamar Blue assays as described (MABA; [Collins, L. & Franzblau, S. (1997) Microplate Alamar Blue assay versus BACTEC 460 system for high-throughput screening of compounds against Mycobacterium tuberculosis and Mycobacterium avium. Antimicrob. Agents Chemother. 41, 1004-1009]).

The subject of series [4] is Mycobacterium avium ATCC 25291. As to the kind of experiment: Microplate Alamar Blue assay (MABA) MIC, M. avium. To be noted: ATCC25291, M. avium ATCC 25291.
From the text: as §1
On the technique in general: The colour change of resazurin is a common sign of viable cells or microbes.

The structures appear in SMILES notation. Converted amounts (≈) assume the structure as drawn. Some results are limits rather than exact numbers.

`Cc1ccc(F)cc1NC(=O)C(Cc1ccccc1)NC(=O)c1cccc2[nH]ccc12` (stereo not shown) [IX-80, N-(1-((5-fluoro-2-methylphenyl)amino)-1-oxo-3-phenylpropan-2-yl)-1H-indole-4-carboxamide]: the MIC stood at 0.195 µg/mL (≈ 0.469 µM) in series [1], 1.56 µg/mL (≈ 3.75 µM) in series [3] and 3.12 µg/mL (≈ 7.52 µM) in series [4]. Moreover, in series [2], the “MCC mammalian cells Vero E6 ATCC CRL1586” value was determined as 33 µg/mL.
Taken in the same sequence, the figures for `Cc1ccc(F)cc1NC(=O)C(Cc1ccccc1)NC(=O)c1ccccc1F` (stereo not shown) [IX-81, 2-fluoro-N-(1-((5-fluoro-2-methylphenyl)amino)-1-oxo-3-phenylpropan-2-yl)benzamide] were 0.195 µg/mL (≈ 0.494 µM), 1.56 µg/mL (≈ 3.96 µM), 3.12 µg/mL (≈ 7.92 µM) and 38 µg/mL.
For `Cc1ccc(F)cc1NC(=O)C(Cc1ccccc1)NC(=O)c1ccccc1Cl` (stereo not shown) [IX-82, 2-chloro-N-(1-((5-fluoro-2-methylphenyl)amino)-1-oxo-3-phenylpropan-2-yl)benzamide], in that order: 0.39 µg/mL (≈ 0.949 µM), 1.56 µg/mL (≈ 3.8 µM), 3.12 µg/mL (≈ 7.61 µM) and 20 µg/mL.
Taken in the same sequence, the figures for `Cc1ccc(F)cc1NC(=O)C(Cc1ccccc1)NC(=O)c1ccccc1C` (stereo not shown) [IX-83, N-(1-((5-fluoro-2-methylphenyl)amino)-1-oxo-3-phenylpropan-2-yl)-2-methylbenzamide] were 0.195 µg/mL (≈ 0.499 µM), 0.78 µg/mL (≈ 2 µM), 1.56 µg/mL (≈ 4 µM) and 1.4 µg/mL.
Take `O=C(NC(Cc1ccccc1)C(=O)Nc1cccc2ncccc12)c1cccs1` (stereo not shown) [IX-85, N-(1-oxo-3-phenyl-1-(quinolin-5-ylamino)propan-2-yl)thiophene-2-carboxamide]: the MIC amounted to 0.39 µg/mL (≈ 0.971 µM) in series [1], 12.5 µg/mL (≈ 31.1 µM) in series [3] and 25 µg/mL (≈ 62.3 µM) in series [4]. For the same compound, the “MCC mammalian cells Vero E6 ATCC CRL1586” value in series [2] came to 40 µg/mL.
For `O=C(NC(Cc1ccccc1)C(=O)Nc1cccc2c1CCCC2)c1cccs1` (stereo not shown) [IX-86, N-(1-oxo-3-phenyl-1-((5,6,7,8-tetrahydronaphthalen-1-yl)amino)propan-2-yl)thiophene-2-carboxamide], in that order: 0.78 µg/mL (≈ 1.93 µM), over 50 µg/mL, over 50 µg/mL and 50 µg/mL.
With `O=C(NC(Cc1ccccc1)C(=O)Nc1cccc2[nH]ccc12)c1ccccc1F` (stereo not shown) [IX-91, N-(1-((1H-indol-4-yl)amino)-1-oxo-3-phenylpropan-2-yl)-2-fluorobenzamide], the minimum inhibitory concentration (MIC) worked out at 1.56 µg/mL (≈ 3.89 µM) in series [1], 50 µg/mL (≈ 125 µM) in series [3] and 50 µg/mL (≈ 125 µM) in series [4]. Further, in series [2], the “MCC mammalian cells Vero E6 ATCC CRL1586” value turned out to be 65 µg/mL.
For `Cc1ccc(Cl)cc1NC(=O)C(Cc1ccc(O)cc1)NC(=O)c1cccs1` (stereo not shown) [IX-94, N-(1-((5-chloro-2-methylphenyl)amino)-3-(4-hydroxyphenyl)-1-oxopropan-2-yl)thiophene-2-carboxamide], the MIC in series [1] was found to be 0.78 µg/mL (≈ 1.88 µM); in series [3] it was 3.12 µg/mL (≈ 7.53 µM); in series [4], 3.12 µg/mL (≈ 7.53 µM). In series [2], the “MCC mammalian cells Vero E6 ATCC CRL1586” value was determined as 58 µg/mL.
On to `O=C(NC(Cc1ccccc1)C(=O)Nc1cccc2cc[nH]c12)c1ccccc1Cl` (stereo not shown) [IX-95, N-(1-((1H-indol-7-yl)amino)-1-oxo-3-phenylpropan-2-yl)-2-chlorobenzamide], for which the MIC in series [1] stood at 0.39 µg/mL (≈ 0.933 µM); in series [3], 12.5 µg/mL (≈ 29.9 µM); in series [4], 25 µg/mL (≈ 59.8 µM). Further, in series [2], the “MCC mammalian cells Vero E6 ATCC CRL1586” value stood at 20 µg/mL.
On to `O=C(NC(Cc1ccccc1)C(=O)Nc1cccc2cc[nH]c12)c1ccccc1F` (stereo not shown) [IX-96, N-(1-((1H-indol-7-yl)amino)-1-oxo-3-phenylpropan-2-yl)-2-fluorobenzamide], for which the MIC stood at 0.78 µg/mL (≈ 1.94 µM) in series [1], 12.5 µg/mL (≈ 31.1 µM) in series [3] and 25 µg/mL (≈ 62.3 µM) in series [4]. For the same compound, the “MCC mammalian cells Vero E6 ATCC CRL1586” value in series [2] came to 44 µg/mL.

One may read the MIC as the smallest concentration in the dilution series that meets the test's criterion for growth inhibition.
